Measurements from patent US20250236589A1, “THERAPEUTIC PHENETHYLAMINE COMPOSITIONS AND METHODS OF USE” (Cybin IRL Limited, priority 2022, published 2025).
pKi: −log10 of the molar value. Entries after “also recorded” stand apart in the source; their conditions may differ. Where two headings read alike, the source gives them in different places.

Key:
[1] = In vitro liver microsome stability (RLM); format: in vitro ADME; settings: rat, rat liver microsomes, 0.5 mg/mL microsomes, NADPH, read-out: RLM, t1/2
Experimental: (§1) In vitro stability was determined in Human (HLM), Rat (RLM), Mouse (MsLM), and dog (DLM) Liver Microsomes. All liver microsomes were purchased from a commercial supplier (e.g. XenoTech). The reaction mixture, minus NADPH, was prepared as described below. The test compound was added into the reaction mixture at a final concentration of 1 μM or co-dosed with their deuterated analog(s) at 1 μM each. The control compound, testosterone, was run simultaneously with the test compound in a separate reaction. The reaction mixture (without cofactor) was equilibrated in a shaking water bath at 37° C. for 5 minutes. The reaction was initiated by the addition of the cofactor, and the mixture was incubated in a shaking water bath at 37° C. Aliquots (150 μL) were withdrawn at 0, 5, 10, 20, 30, 60, and 120 minutes. Test compound and testosterone samples were immediately combined with 150 μL of ice-cold acetonitrile (ACN) containing 0.1% formic acid and internal standard to terminate the reaction. The samples were then mixed and centrifuged to precipitate proteins. All samples were assayed by LC-MS/MS using electrospray ionization. The peak area response ratio (PARR) of analyte to internal standard at each time point was compared to the PARR at time 0 to determine the percent remaining at each time point. Half-lives were calculated using GraphPad software, fitting to a single-phase exponential decay equation.

[2] = In vitro liver microsome stability (HLM); format: in vitro ADME; settings: human, human liver microsomes, 0.5 mg/mL microsomes, NADPH, read-out: HLM, t1/2
Experimental: as §1, with “The peak area response ratio (PARR) of analyte to internal standard at each time point was compared to the PARR at time 0 to determine the percent remaining at each time point.” left out

[3] = In vitro liver microsome stability (DLM); format: in vitro ADME; settings: dog, dog liver microsomes, 0.5 mg/mL microsomes, NADPH, read-out: DLM, t1/2
Experimental: as §1, with “The peak area response ratio (PARR) of analyte to internal standard at each time point was compared to the PARR at time 0 to determine the percent remaining at each time point.” left out

C57BL/6J mice = test: HTR after oral or s.c. administration in C57BL/6J mice; format: in vivo, mouse
Experimental: In another experiment, C57BL/6J mice were moved to the behavior room 30 min prior to administration of the test compound. Test compound was administered either s.c. or p.o. at 1 to 10 mg/kg immediately prior to testing and HTR activity was assessed from 1-30 min and again from 120-150 by blind experienced testers in real-time.

[4] = PK profile in Wistar rats (plasma, brain, urine); format: in vivo, rat
Experimental: PK profile in Rats. To evaluate the full PK profile for I-1 in rats, plasma and brain pharmacokinetic and urinary excretion of I-1 in male Wistar rats after IV dose at 1 mg/kg and an oral (p.o.) dose at 5 mg/kg administration were determined. Plasma, brain, and urine samples were collected at specified time points after single dose administration of I-1 and quantification of I-1 in the samples was accomplished using LC-MS/MS. The pharmacokinetic parameters were determined as described above.

[5] = test system: bdnf, homer1, Egr2, cFos mRNA (frontal cortex); test: Brain markers of neuroplasticity, gene expression in frontal cortex; format: in vivo, mouse
Experimental: To evaluate the effects of I-1 on brain markers of neuroplasticity, male C57BL/6J mice were dosed as described in Table 10.
On Day 4, the animals were euthanized 2 hours post-dose. The left frontal cortex was dissected and stored in RNAlater.
Data were log transformed and analyzed by one-way analysis of variance. Each treatment was compared to vehicle by multiple comparisons. […] Moreover, increased homer1 expression, which is associated with the formation of postsynaptic scaffolds that cluster and colocalize NMDAR and mGluR was observed (FIG. 57C); and increased Egr2 expression, a […] that has been proposed to be a marker for psychedelic activation of 5-HT2A receptors (Gonzalez-Maeso et al., Transcriptome fingerprints distinguish hallucinogenic and nonhallucinogenic 5-hydroxytryptamine 2A receptor agonist effects in mouse somatosensory cortex. J Neurosci. 2003; 23(26), 8836-43) was observed (FIG. 57D). Upregulation of bdnf, a neurotrophin that regulates the survival and growth of neurons and influences synaptic efficiency and plasticity, was also observed (FIG. 57A).

5-HT2A receptor = 5-HT2A receptor (Homo sapiens (Human), UniProt P28223); test: 5-HT2A radioligand competition binding ([3H]LSD or [3H]ketanserin)
[6] = male, Wistar, rat, po, brain, p.o. 5 mg/kg
[7] = male, Wistar, rat, po, plasma, p.o. 5 mg/kg
[8] = male, Wistar, rat, brain, IV 1 mg/kg
[9] = male, Wistar, rat, plasma, IV 1 mg/kg
[10] = 2 h after fourth dose of 0.3 mg/kg s.c. (group C) vs vehicle
[11] = 2 h after single 3 mg/kg s.c. (group B) vs vehicle

For `COc1cc(SC(F)(F)F)c(OC)cc1CCN` [Compound I-1, 2-(2,5-dimethoxy-4-((trifluoromethyl)thio)phenyl)ethan-1-amine], the half-life at 1 μM [1] was 0.92 h, the half-life at 1 μM [2] was greater than 2 h and the half-life at 1 μM [3] was greater than 2 h. The “HTR after oral administration” value (C57BL/6J mice; 1, 3, 10 mg/kg p.o.) was “elicited the HTR; also recorded: dose-dependent increase in HTRs”, the “HTR duration versus DOI, oral” value (C57BL/6J mice; p.o.) was “greater duration than DOI” and the “mean total amount recovered in urine” value ([4]; IV 1 mg/kg, n=2) was 718 ng. The “% F (AUCINF)” value ([4]; absolute oral bioavailability, p.o. 5 mg/kg) was 19.1%, the “Cmax, brain concentration” value ([4]; brain, IV 1 mg/kg) was 890 ng/g and the T1/2 ([4]; brain, IV 1 mg/kg) was 2.44 h. For the same molecule, the “Cmax, brain concentration” value ([4]; brain, p.o. 5 mg/kg) was 402 ng/g, the T1/2 ([4]; brain, p.o. 5 mg/kg) was 4.71 h and the “total systemic clearance relative to total hepatic blood flow” value ([4]; hepatic blood flow 3.3 L/hr/kg) was “approximately 6 fold”. The head twitching observed ([4]; immediately after IV 1 mg/kg, 1.5 hr after oral 5 mg/kg) was “mild to moderate-grade head twitching”, the Tmax ([4]; male, Wistar, rat, brain, iv, 1 mg/kg, IV 1 mg/kg) was 0.5 h and the Tmax ([4]; male, Wistar, rat, brain, po, 5 mg/kg, p.o. 5 mg/kg) was 2 h. For the same molecule, the Tmax ([4]; male, Wistar, rat, plasma, iv, 1 mg/kg, IV 1 mg/kg) was 0.083 h, the AUC(0-inf) [4, 6] was 2880 ng·h/mL and the AUC(0-t) [4, 6] was 1860 ng·h/mL. For the same molecule, the Cmax [4, 6] was 402 ng/mL, the MRT last [4, 6] was 3.3 h and the half-life [4, 6] was 4.71 h. The AUC(0-inf) [4, 7] was 49.7 ng·h/mL, the AUC(0-t) [4, 7] was 40.3 ng·h/mL and the Cmax [4, 7] was 18.6 ng/mL. For the same molecule, the MRT last [4, 7] was 2.25 h, the half-life [4, 7] was 3.53 h and the CL renal ([4]; male, Wistar, rat, urine, IV 1 mg/kg, read-out: Renal clearance (converted)) was 1.14 mL/min/kg. The dose excreted ([4]; male, Wistar, rat, urine, IV 1 mg/kg, read-out: percentage recovery in urine) was 0.07%, the AUC(0-inf) [4, 8] was 3260 ng·h/mL and the AUC(0-t) [4, 8] was 2910 ng·h/mL. For the same molecule, the Cmax [4, 8] was 890 ng/mL, the MRT last [4, 8] was 2.54 h and the half-life [4, 8] was 2.44 h. It also gave an AUC(0-inf) [4, 9] of 50.7 ng·h/mL, an AUC(0-t) [4, 9] of 42.2 ng·h/mL and a Cmax [4, 9] of 54.1 ng/mL. For the same molecule, the MRT last [4, 9] was 0.62 h, the clearance [4, 9] was 328 mL/min/kg and the half-life [4, 9] was 0.78 h. The C0 ([4]; male, Wistar, rat, plasma, IV 1 mg/kg, extrapolated) was 67.2 ng/mL, the Vd ([4]; male, Wistar, rat, plasma, IV 1 mg/kg, read-out: Vz) was 22.2 L/kg and the Cl ([4]; plasma, IV 1 mg/kg) was 328 mL/min/kg. The T1/2 ([4]; plasma, IV 1 mg/kg) was 0.78 h, the T1/2 ([4]; plasma, p.o. 5 mg/kg) was 3.53 h and the “volume of distribution relative to total body water” value ([4]; total body water 0.7 L/kg) was “approximately 32 fold”. The “Egr2 mRNA expression” value [5, 10] was “Increased expression”, the “homer1 mRNA expression” value [5, 10] was “Increased expression” and the “Egr2 (krox20) mRNA expression” value [5, 11] was “Increased expression”. The “bdnf mRNA expression” value [5, 11] was “Increased expression”, the “cFos mRNA expression” value [5, 11] was “Increased expression” and the “homer1 mRNA expression” value [5, 11] was “Increased expression”. The pKi (5-HT2A receptor) was 7.27, the “affinity at 5-HT2A receptors (in words)” value (5-HT2A receptor) was “superior affinity” and the pKi (5-HT2A receptor; read-out: 5-HT2A, Ki, [3H]ketanserin, high-affinity active state) was 8.60.
